Assay results published in patent publication US20150175599A1, “FAAH Inhibitors” (Ironwood Pharmaceuticals, Inc., priority 2010, published 2015).
pIC50: −log10 of the molar value. Like-named read-outs stand apart in the source and are kept apart here.

Biological target: T1, human FAAH-1 (Homo sapiens, UniProt O00519)
T1 sequence (O00519 1-579): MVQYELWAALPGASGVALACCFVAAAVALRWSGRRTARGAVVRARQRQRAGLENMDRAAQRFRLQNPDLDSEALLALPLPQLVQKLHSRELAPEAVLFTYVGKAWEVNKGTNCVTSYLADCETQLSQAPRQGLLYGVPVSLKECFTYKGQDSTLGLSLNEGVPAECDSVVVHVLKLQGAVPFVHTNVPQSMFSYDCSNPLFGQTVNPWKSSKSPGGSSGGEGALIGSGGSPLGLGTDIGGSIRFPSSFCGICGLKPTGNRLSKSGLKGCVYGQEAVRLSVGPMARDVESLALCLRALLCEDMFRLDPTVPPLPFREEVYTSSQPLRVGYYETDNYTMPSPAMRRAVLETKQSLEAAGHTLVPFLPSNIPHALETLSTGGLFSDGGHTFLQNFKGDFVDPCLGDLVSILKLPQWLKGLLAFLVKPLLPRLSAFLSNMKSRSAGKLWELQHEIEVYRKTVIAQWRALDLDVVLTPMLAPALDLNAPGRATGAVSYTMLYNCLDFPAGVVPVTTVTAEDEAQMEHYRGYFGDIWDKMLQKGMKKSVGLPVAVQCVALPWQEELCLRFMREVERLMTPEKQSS
Assay: Whole cell anandamide hydrolysis assay (HeLa clone 5c5 transfected with human FAAH-1)
Assay type: cell-based
Method in brief: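 Stable HeLa clone 5c5 expressing human FAAH-1, pre-incubated with compound 10 min at 37° C in DMEM/F12 with 15 mM HEPES pH 7.4 and 0.1% fatty-acid-free BSA. [3H]-anandamide (5 μM stock) added for 15 min; [3H]-ethanolamine separated on charcoal and counted. IC50 from curves constrained to 100% and 0%.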

[1] = HeLa clone 5c5 expressing human FAAH-1, read-out: human FAAH whole cell IC50

SMILES	pIC50 [1]	pIC50
COc1cc(NC(=O)C(=O)c2c(C)n(Cc3ccc(Cl)cn3)c3ncc(C)cc23)ccn1 [Compound 75, (1-((5-chloropyridin-2-yl)methyl)-2,5-dimethyl-1H-pyrrolo[2,3-b]pyridin-3-yl)-N-(2-methoxypyridin-4-yl)-2-oxoacetamide]	> 7.00	–
COc1cc(NC(=O)C(=O)c2c(C)n(Cc3ccc(Cl)cc3)c3ncc(C)cc23)ccn1 [Compound 76, 2-(1-(4-chlorobenzyl)-2,5-dimethyl-1H-pyrrolo[2,3-b]pyridin-3-yl)-N-(2-methoxypyridin-4-yl)-2-oxoacetamide]	> 7.00	–
COc1ccc2c(c1)c(C(=O)C(=O)Nc1ccnc(OC)c1)c(C)n2Cc1ccccn1 [Compound 77, 2-(5-methoxy-2-methyl-1-(pyridin-2-ylmethyl)-1H-indol-3-yl)-N-(2-methoxypyridin-4-yl)-2-oxoacetamide]	> 7.00	–
COc1cc(NC(=O)C(=O)c2c(C)n(Cc3ncc(F)cc3F)c3ccc(C)cc23)ccn1 [Compound 88, 2-(1-((3,5-difluoropyridin-2-yl)methyl)-2,5-dimethyl-1H-indol-3-yl)-N-(2-methoxypyridin-4-yl)-2-oxoacetamide]	–	> 7.00
COc1cc(NC(=O)C(=O)c2c(C)n(Cc3ccc(Cl)cn3)c3cc(C)c(OC)cc23)ccn1 [Compound 95, 2-(1-((5-chloropyridin-2-yl)methyl)-5-methoxy-2,6-dimethyl-1H-indol-3-yl)-N-(2-methoxypyridin-4-yl)-2-oxoacetamide]	> 7.00	–
COc1ccc(Cn2c(C)c(C(=O)C(=O)Nc3ccnc(OC)c3)c3cc(OC)c(C)cc32)nc1 [Compound 96, 2-(5-methoxy-1-((5-methoxypyridin-2-yl)methyl)-2,6-dimethyl-1H-indol-3-yl)-N-(2-methoxypyridin-4-yl)-2-oxoacetamide]	> 7.00	–
COc1cc(NC(=O)C(=O)c2c(C)n(Cc3ncc(Cl)cc3F)c3cc(Cl)c(OC)cc23)ccn1 [Compound 97, 2-(6-chloro-1-((5-chloro-3-fluoropyridin-2-yl)methyl)-5-methoxy-2-methyl-1H-indol-3-yl)-N-(2-methoxypyridin-4-yl)-2-oxoacetamide]	> 7.00	–
COc1ccc(Cn2c(C)c(C(=O)C(=O)Nc3ccnc(OC)c3)c3cc(OC)c(Cl)cc32)nc1 [Compound 98, 2-(6-chloro-5-methoxy-1-((5-methoxypyridin-2-yl)methyl)-2-methyl-1H-indol-3-yl)-N-(2-methoxypyridin-4-yl)-2-oxoacetamide]	> 7.00	–
COc1cc(NC(=O)C(=O)c2c(C)n(Cc3ncc(Cl)cc3F)c3cc(F)c(OC)cc23)ccn1 [Compound 99, 2-(1-((5-chloro-3-fluoropyridin-2-yl)methyl)-6-fluoro-5-methoxy-2-methyl-1H-indol-3-yl)-N-(2-methoxypyridin-4-yl)-2-oxoacetamide]	> 7.00	–
COc1ccc2c(c1)c(C(=O)C(=O)Nc1ccnc(OC)c1)c(C)n2Cc1ncc(Cl)cc1OC [Compound 100, 2-(1-((5-chloro-3-methoxypyridin-2-yl)methyl)-5-methoxy-2-methyl-1H-indol-3-yl)-N-(2-methoxypyridin-4-yl)-2-oxoacetamide]	> 7.00	–
COc1cc(NC(=O)C(=O)c2c(C)n(Cc3ncc(F)cc3F)c3cc(F)c(OC)cc23)ccn1 [Compound 101, 2-(1-((3,5-difluoropyridin-2-yl)methyl)-6-fluoro-5-methoxy-2-methyl-1H-indol-3-yl)-N-(2-methoxypyridin-4-yl)-2-oxoacetamide]	> 7.00	–
